Results taken from US9365587B2, “Synthesis of carbamoylpyridone HIV integrase inhibitors and intermediates” (Shionogi & Co., Ltd., priority 2008, dated 2016).

Key:
Conditions in all cases: crystal
[1] = solubility of the crystals in water or saline; format: physicochemical
[2] = pharmacokinetics of the crystals (BA, Cmax, Tmax); format: in vivo
[3] = stability of the crystals against heat or light; format: physicochemical

C[C@@H]1CCO[C@H]2Cn3cc(C(=O)NCc4ccc(F)cc4F)c(=O)c(O)c3C(=O)N12 [Compound 13]
solubility in water or saline [1]: high | bioavailability (BA) [2]: high | maximum drug concentration (Cmax) [2]: high | maximum drug concentration time (Tmax) [2]: short | stability against heat or light [3]: high
